Measurements: PubChem BioAssay (NCI)
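Grown in 96-well plates, cells were treated for 48 hours with each compound at five concentrations. Insufficient inhibition: endpoint recorded as highest concentration tested. Here, GI50 denotes the concentration required for 50% inhibition of growth. TGI is the concentration that stops growth completely.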

Columns and labels:
Test in all cases: NCI-60 cell line screen, 48 h
MDA-MB-231 breast = system: MDA-MB-231 breast
HCT-15 colon = system: HCT-15 colon
NCI-H460 lung = system: NCI-H460 lung
786-0 renal = system: 786-0 renal
OVCAR-8 ovarian = system: OVCAR-8 ovarian
RPMI-8226 leukemia = system: RPMI-8226 leukemia
MALME-3M melanoma = system: MALME-3M melanoma
HCT-116 colon = system: HCT-116 colon
SK-MEL-5 melanoma = system: SK-MEL-5 melanoma
NCI-H522 lung = system: NCI-H522 lung
M14 melanoma = system: M14 melanoma
HS 578T breast = system: HS 578T breast
SF-295 CNS = system: SF-295 CNS
DU-145 prostate = system: DU-145 prostate
CCRF-CEM leukemia = system: CCRF-CEM leukemia
PC-3 prostate = system: PC-3 prostate
OVCAR-5 ovarian = system: OVCAR-5 ovarian
KM12 colon = system: KM12 colon
SK-MEL-28 melanoma = system: SK-MEL-28 melanoma
LOX IMVI melanoma = system: LOX IMVI melanoma
UACC-62 melanoma = system: UACC-62 melanoma
SNB-19 CNS = system: SNB-19 CNS
NCI/ADR-RES ovarian = system: NCI/ADR-RES ovarian
OVCAR-4 ovarian = system: OVCAR-4 ovarian
ACHN renal = system: ACHN renal
UACC-257 melanoma = system: UACC-257 melanoma
MDA-MB-468 breast = system: MDA-MB-468 breast
EKVX NSCLC = system: EKVX NSCLC
CAKI-1 renal = system: CAKI-1 renal
SN12C renal = system: SN12C renal
MOLT-4 leukemia = system: MOLT-4 leukemia
SF-268 CNS = system: SF-268 CNS
HOP-62 NSCLC = system: HOP-62 NSCLC
SW-620 colon = system: SW-620 colon
IGROV1 ovarian = system: IGROV1 ovarian
COLO 205 colon = system: COLO 205 colon
UO-31 renal = system: UO-31 renal
RXF 393 renal = system: RXF 393 renal
HL-60(TB) leukemia = system: HL-60(TB) leukemia
U251 CNS = system: U251 CNS
SK-MEL-2 melanoma = system: SK-MEL-2 melanoma
HOP-92 NSCLC = system: HOP-92 NSCLC
HCC-2998 colon = system: HCC-2998 colon
TK-10 renal = system: TK-10 renal
K-562 leukemia = system: K-562 leukemia
NCI-H23 lung = system: NCI-H23 lung
OVCAR-3 ovarian = system: OVCAR-3 ovarian
SK-OV-3 ovarian = system: SK-OV-3 ovarian
MDA-MB-435 = system: MDA-MB-435
SNB-75 CNS = system: SNB-75 CNS
SR leukemia = system: SR leukemia
SF-539 CNS = system: SF-539 CNS
T-47D breast = system: T-47D breast
BT-549 breast = system: BT-549 breast
NCI-H226 lung = system: NCI-H226 lung
A549 NSCLC = system: A549 NSCLC
A498 renal = system: A498 renal
HT29 colon = system: HT29 colon
MCF7 breast = system: MCF7 breast

## C#C[C@]1(O)CC[C@H]2[C@@H]3CC=C4c5sc(Nc6ccc(C(F)(F)F)cn6)nc5CC[C@]4(C)[C@H]3CC[C@@]21C
MDA-MB-231 breast
  GI50: 1.88 µM
  TGI: 4.44 µM
HCT-15 colon
  GI50: 1.72 µM
  TGI: 4.96 µM
NCI-H460 lung
  GI50: 2.86 µM
  TGI: 10.6 µM
786-0 renal
  GI50: 1.47 µM
  TGI: 3.45 µM
OVCAR-8 ovarian
  GI50: 9.96 µM
  TGI: > 100 µM
RPMI-8226 leukemia
  GI50: 0.564 µM
  TGI: > 100 µM
MALME-3M melanoma
  GI50: 2.89 µM
  TGI: 14.1 µM
HCT-116 colon
  GI50: 3.22 µM
  TGI: 13.7 µM
SK-MEL-5 melanoma
  GI50: 2.09 µM
  TGI: 4.8 µM
NCI-H522 lung
  GI50: 3.97 µM
  TGI: 16.2 µM
M14 melanoma
  GI50: 2.57 µM
  TGI: 9.92 µM
HS 578T breast
  GI50: 1.45 µM
  TGI: 5.27 µM
SF-295 CNS
  GI50: 0.565 µM
  TGI: 2.07 µM
DU-145 prostate
  GI50: 4.6 µM
  TGI: 22.5 µM
CCRF-CEM leukemia
  GI50: 2.76 µM
  TGI: > 100 µM
PC-3 prostate
  GI50: 1.98 µM
  TGI: > 100 µM
OVCAR-5 ovarian
  GI50: 4.48 µM
  TGI: 23.8 µM
KM12 colon
  GI50: 4.49 µM
  TGI: 18.4 µM
SK-MEL-28 melanoma
  GI50: 1.39 µM
  TGI: 2.93 µM
LOX IMVI melanoma
  GI50: 1.84 µM
  TGI: 4.25 µM
UACC-62 melanoma
  GI50: 1.95 µM
  TGI: 4.5 µM
SNB-19 CNS
  GI50: 2.9 µM
  TGI: 12.2 µM
NCI/ADR-RES ovarian
  GI50: 3.76 µM
  TGI: 46 µM
OVCAR-4 ovarian
  GI50: 3.65 µM
  TGI: 31 µM
ACHN renal
  GI50: 3.34 µM
  TGI: 24.2 µM
UACC-257 melanoma
  GI50: 3.85 µM
  TGI: 18.4 µM
MDA-MB-468 breast
  GI50: 3.16 µM
  TGI: 18.9 µM
EKVX NSCLC
  GI50: 2.15 µM
  TGI: 8.58 µM
CAKI-1 renal
  GI50: 1.92 µM
  TGI: 5.62 µM
SN12C renal
  GI50: 4.77 µM
  TGI: 19.2 µM
MOLT-4 leukemia
  GI50: 2.62 µM
  TGI: 13.7 µM
SF-268 CNS
  GI50: 4.04 µM
  TGI: 32.6 µM
HOP-62 NSCLC
  GI50: 2.32 µM
  TGI: 11.3 µM
SW-620 colon
  GI50: 2.04 µM
  TGI: 5.03 µM
IGROV1 ovarian
  GI50: 4.16 µM
  TGI: 21 µM
COLO 205 colon
  GI50: 2.75 µM
  TGI: 13.8 µM
UO-31 renal
  GI50: 3.09 µM
  TGI: 13.7 µM
RXF 393 renal
  GI50: 0.723 µM
  TGI: 2.54 µM
HL-60(TB) leukemia
  GI50: 2.67 µM
  TGI: 7.65 µM
U251 CNS
  GI50: 1.72 µM
  TGI: 11.3 µM
SK-MEL-2 melanoma
  GI50: 2.91 µM
  TGI: 10.6 µM
HOP-92 NSCLC
  GI50: 5.41 µM
  TGI: 26.1 µM
HCC-2998 colon
  GI50: 4.82 µM
  TGI: 18.3 µM
TK-10 renal
  GI50: 6.83 µM
  TGI: 91.2 µM
K-562 leukemia
  GI50: 2.73 µM
  TGI: > 100 µM
NCI-H23 lung
  GI50: 3.08 µM
  TGI: 15.5 µM
OVCAR-3 ovarian
  GI50: 4.68 µM
  TGI: 35.1 µM
SK-OV-3 ovarian
  GI50: 2.83 µM
  TGI: 26.7 µM
MDA-MB-435
  GI50: 3.04 µM
  TGI: 11.9 µM
SNB-75 CNS
  GI50: 1.27 µM
  TGI: 12.7 µM
SR leukemia
  GI50: 2.47 µM
  TGI: 20.4 µM
SF-539 CNS
  GI50: 0.89 µM
  TGI: 2.66 µM
T-47D breast
  GI50: 3.58 µM
  TGI: 18.4 µM
BT-549 breast
  GI50: 2.54 µM
  TGI: 8.13 µM
NCI-H226 lung
  GI50: 3.91 µM
  TGI: 19.9 µM
A549 NSCLC
  GI50: 6.95 µM
  TGI: > 100 µM
A498 renal
  GI50: 2.43 µM
  TGI: 5.45 µM
HT29 colon
  GI50: 3.85 µM
  TGI: 30.5 µM
MCF7 breast
  GI50: 1.96 µM
  TGI: 4.49 µM
